# In US20070197452A1, “Treatment of amyloid-related diseases” (priority 2006, published 2007):
# Entries after “also recorded” stand apart in the source; their conditions may differ.
# Key:
# Format in all cases: in vivo, mouse
# TgCRND8 mice [1] = test: Vascular amyloid (Aβ) burden; conditions: prophylactic treatment, vs untreated
# Experimental: Cerebral amyloid burden. Brains were removed and one hemisphere was fixed in 4% paraformaldehyde and embedded in paraffin wax in the mid sagittal plane. To generate sets of systematic uniform random sections, 5 μm serial sections were collected across the entire hemisphere. Sets of sections at 50 μm intervals were used for analyses (10-14 sections/set). Plaques were identified after antigen retrieval with formic acid, and incubation with primary anti-Aβ antibody (Dako M-0872), followed by secondary antibody (Dako StreptABCcomplex/horseradish kit). End products were visualized with DAB and were counter-stained with luxol fast blue. Amyloid plaque burden was assessed with Leco IA-3001 image analysis software interfaced with Leica microscope and Hitachi KP-M1U CCD video camera. Openlab imaging software (Improvision, Lexington, Mass.) was then used to convert micrographs to binary images for plaque number and plaque area determinations. Vascular amyloid burden was defined as amyloid originating from or surrounding blood vessels and was analysed similarly.
# Cerebral Aβ burden. Brains were removed and fixed one hemisphere from each in 4% paraformaldehyde and embedded in paraffin wax in the midsagittal plane. Sets of sections at […] intervals for analyses (10-14 sections per set) were used. Plaques with primary Aβ-specific antibody (Dako M-0872) were identified and visualized with DAB. AP plaque burden was assessed with Openlab imaging software (Improvision) and used to convert micrographs to binary images for determinations of plaque number and plaque area. Vascular Aβ burden was defined as Aβ plaques originating from or surrounding blood vessels and was analyzed similarly.
# Cerebral Aβ burden. Brains were removed and one hemisphere was fixed in 4% paraformaldehyde and embedded in paraffin wax in the mid sagittal plane. […] Aβ plaque burden was assessed with Leco IA-3001 image analysis software interfaced with Leica microscope and Hitachi KP-M1U CCD video camera. […] Vascular Aβ burden was defined as Aβ plaques originating from or surrounding blood vessels and was analyzed similarly.
# TgCRND8 mice [2] = test: Gliosis quantitation (GFAP astrocytes, CD68 microglia); conditions: prophylactic treatment; for astrogliosis (percent brain area covered): 4 and 6 months of age; for microgliosis / microglial activation (percent brain area covered): 6 months of age
# Experimental: Gliosis Quantitation. Five randomly selected, evenly spaced, sagittal sections were collected from paraformaldehyde-fixed and frozen hemispheres of treated and control mice. Sections were immunolabelled for astrocytes with anti-rat GFAβ IgG2a (Dako; diluted 1:50) and for microglia with anti-rat CD68 IgG2b (Dako; 1:50). Digital images were captured using a Coolsnap digital camera (Photometrics, Tuscon, Ariz.) mounted to a Zeiss, Axioscope 2 Plus microscope. Images were analysed using Openlab 3.08 imaging software (Improvision, Lexington Mass.). Quantification of gliosis. Five randomly selected, evenly spaced sagittal sections from paraformaldehyde-fixed and frozen hemispheres of treated and control mice were collected. Sections were immunolabeled for astrocytes with an antibody against rat GFAβ IgG2a (Dako; diluted 1:50) and for microglia with an antibody to rat CD68 IgG2b (Dako; 1:50). Digital images were captured using a Coolsnap digital camera (Photometrics) mounted to a Zeiss, Axioscope 2 Plus microscope. Images were analyzed using Openlab 3.08 imaging software (Improvision).
# TgCRND8 mice [3] = test: Survival census (Kaplan-Meier); conditions: prophylactic treatment, vs untreated, n=35 per group
# Experimental: (§1) Survival Census: The probability of survival was assessed by the Kaplan-Meier technique, computing the probability of survival at every occurrence of death, thus making it suitable for small sample sizes. For the analyses of survival, 35 mice were used for each treatment group. The Tarone-Ware test was used to assess effects of treatments.
# as §1, with “census.” for “Census:”, “using” for “by”
# APP = test: Analysis of APP in brain (western blot); conditions: treated TgCRND8 mice
# Experimental: Analysis of APP in brain. Mouse hemi-brain samples were homogenized and spun at 109,000×g, in 20 mM Tris pH7.4,0.25M sucrose, 1 mM EDTA and 1 mM EGTA, and a protease inhibitor cocktail, mixed with 0.4% DEA (diethylamine)/100 mM NaCl. The supernatants were analysed for APPs levels by Western blotting using mAb 22C11, while the pellets were analysed for APP holoprotein with mAb C1/6.1 as previously described.
# Analysis of APP processing. Mouse hemi-brain samples were homogenized and spun at 109,000 g, in 20 mM Tris pH 7.4, 0.25 M sucrose, 1 mM EDTA and 1 mM EGTA, and a protease inhibitor cocktail, mixed with a mixture of 0.4% DEA (diethylamine) and 100 mMNaCl. The supernatants were analyzed for APP levels by western blotting using the monoclonal antibody 22C11, and the pellets were analyzed for APP holoprotein with the monoclonal antibody C1/6.1 as previously described. […] The target protein was probed with polyclonal APP C-terminal fragment-specific antibody (Sigma) by western blotting.
# Aβ40 = target: T1, Aβ40 (Homo sapiens, UniProt P05067); test: Cerebral Aβ40 content of hemi-brain homogenates (commercial kit); conditions: for brain Aβ40 levels: TgCRND8 mice with pre-existing disease, 28 days from 5 months of age
# T1 construct: analyzed for Aβ40 and Aβ42 using commercially available kits; from tissue; host or cells: hemi-brain homogenates of TgCRND8 transgenic mice
# Experimental: Plasma and Cerebral Aβ Content. Hemi-brain samples were homogenized in a buffered sucrose solution, followed by either 0.4% diethylamine/100 mM NaCl for soluble Aβ levels or cold formic acid for the isolation of total Aβ. After neutralization, the samples were diluted and analyzed for Aβ40 and Aβ42 using commercially available kits (BIOSOURCE International). Each hemisphere was analyzed in triplicate and the mean values±SEM reported. Western blot analyses were performed on all fractions using urea gels for Aβ species analyses. Aβ was detected using 6E10 (BIOSOURCE International) and Enhanced Chemiluminenscence (Amersham).
# Plasma and cerebral Aβ content. Hemi-brain samples were homogenized in a buffered sucrose solution, followed by either a mixture of 0.4% diethylamine and 100 mM NaCl for soluble Aβ levels or cold formic acid for the isolation of total Aβ. After neutralization, samples were diluted and analyzed for Aβ40 and Aβ42 using commercially available kits (Biosource International). Each hemisphere was analyzed in triplicate and the mean±s.e.m. was reported. Western blot analyses were carried out on all fractions using urea gels for Aβ species analyses. Aβ was detected using 6E10 (Biosource International).
# T1 sequence (P05067 672-711 limits assumed): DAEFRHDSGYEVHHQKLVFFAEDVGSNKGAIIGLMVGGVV
SMILES,brain area covered by cerebrovascular Aβ (TgCRND8 mice [1]),mean size of cerebrovascular deposits (TgCRND8 mice [1]),astrogliosis (percent brain area covered) (TgCRND8 mice [2]),astrogliosis (percent brain area covered) (TgCRND8 mice [2]; listed as AZD-103),astrogliosis (percent brain area covered) (TgCRND8 mice [2]; listed as Scyllo-cyclohexanehexol),microgliosis / microglial activation (percent brain area covered) (TgCRND8 mice [2]),microgliosis / microglial activation (percent brain area covered) (TgCRND8 mice [2]; listed as AZD-103),survival (Kaplan-Meier cumulative survival) (TgCRND8 mice [3]),survival (Kaplan-Meier cumulative survival) (TgCRND8 mice [3]; listed as AZD-103),"levels of APP holoprotein, APP glycosylation, APPs-α, APPs-β in brain homogenates (APP)",brain Aβ40 levels (Aβ40),total vascular Aβ load / vascular Aβ deposits (TgCRND8 mice [1]),astrogliosis (percent brain area covered) (TgCRND8 mice [2]; listed as AZD-102),astrogliosis (percent brain area covered) (TgCRND8 mice [2]; listed as Epi-cyclohexanehexol),microgliosis / microglial activation (percent brain area covered) (TgCRND8 mice [2]; listed as AZD-102),microgliosis / microglial activation (percent brain area covered) (TgCRND8 mice [2]; listed as Epi-cyclohexanehexol),survival (Kaplan-Meier cumulative survival) (TgCRND8 mice [3]; listed as AZD-102),survival (Kaplan-Meier cumulative survival) (TgCRND8 mice [3]; listed as Epi-cyclohexanehexol),"reduction of brain Aβ40 (range given for both Aβ40 and Aβ42) (Aβ40; TgCRND8 mice, prophylactic treatment, 4 months of age)"
"OC1C(O)C(O)C(O)C(O)C1O (stereo not shown) [scyllo-cyclohexanehexol, 1,3,5/2,4,6-(scyllo-) cyclohexanehexol]",reduced brain area covered by cerebrovascular Aβ,reduced mean size of cerebrovascular deposits,decreased astrogliosis much more efficiently,decreased the astrogliotic response to a greater extent; also recorded: significantly decreased,decreased the astrogliotic response to a greater extent than epi-cyclohexanehexol; also recorded: significantly decreased,attenuated microglial activation; also recorded: decreased the percent brain area covered with microgliosis,decreased the percent brain area covered with microgliosis,accelerated mortality was reversed; also recorded: increased survival,increased survival,no effect,reduced levels,–,–,–,–,–,–,–,–
"OC1C(O)C(O)C(O)C(O)C1O (stereo not drawn) [epi-cyclohexanehexol, 1,2,3,4,5/6-(epi-) cyclohexanehexol, reference compound]",–,–,decreased the percent brain area covered in astrogliosis,–,–,decreased the percent brain area covered with microgliosis,–,–,–,–,no significant impact; also recorded: no significant effect,no change,decreased the percent brain area covered in astrogliosis; also recorded: decrease in astrogliosis,decreased the astrogliotic response; also recorded: decrease in astrogliosis,decreased the percent brain area covered with microgliosis,no effect on microglial activation,did not significantly improve survival,did not significantly improve survival,22-62 % reduction
